Key:
[1] = biological target: T1, KV7.5 (Homo sapiens, UniProt Q9NR82); experiment: Manual patch clamp, KV7 currents; assay type: cell-based
T1 construct: expressed in transfected cells
Experimental: (§1) Pipettes (1–6 MΩ) were filled with a solution of KCl (145 mM), MgCl2 (1 mM), HEPES (10 mM), and EDTA (5 mM). The pH was adjusted to 7.2 with NaOH. Electrophysiological measurements were obtained using an AXON Multiclamp 700 B patch‐clamp amplifier. The bath solution contained NaCl (144 mM), KCl (5 mM), MgCl2 (1 mM), CaCl2 (2 mM), and D‐glucose (10 mM), with the pH adjusted to 7.4 using NaOH. The protocol involved an increase in voltage from −120 mV to 40 mV in increments of 10 mV to evoke a series of KV7 currents (1000 ms per pulse) in the bath solution. For details on cell culture, please see Appendix S1 2.2.1.
(§2) Statistical differences between multiple groups (mean ± SEM) were compared using one‐ or two‐way ANOVA. Electrophysiological data were analyzed using SPSS version 21 and OriginPro (version 9.1.0). P Peak inward currents obtained from activation protocols were calculated using the following equation: G = I/(Vm‐EK), where G is conductance, I is peak inward current, Vm is instantaneous membrane potential, and EK is equilibrium potential for the […] channel. Conductance data were normalized using maximum conductance and further fitted to the Boltzmann equation: G=Gmax+Gmin−Gmax/1+expVm−V1/2/k , where G is conductance, V1/2 is midpoint of activation, and k is slope factor. The “Spectrum” module of LabChart was used for data analysis of EEG signals, including the calculation of power density and averaging power spectral density (PSD).
(§3) Stable Chinese Hamster Ovary (CHO) cell lines expressing specific Kv7 channel subtypes, including KV7.2 and KV7.2/7.3, were cultured in Minimum Essential Medium (MEM) supplemented with 10% fetal calf serum, 1× nonessential amino acids, […], and […] hygromycin B. Concurrently, KV7.4 and KV7.5 channels were stably expressed in Human Embryonic Kidney 293A (HEK293A) cell lines and nurtured in Dulbecco's Modified Eagle Medium (DMEM) high glucose medium supplemented with 10% fetal bovine serum (FBS), […], and […] hygromycin B.

[2] = biological target: T2, KV7.2 (Homo sapiens, UniProt O43526); experiment: Manual patch clamp, KV7 currents; assay type: cell-based; conditions: KV7.2
T2 construct: expressed in transfected cells
Experimental: as §1, §2, §3

[3] = biological target: T3, KV7.4 (Homo sapiens, UniProt P56696); experiment: Manual patch clamp, KV7 currents; assay type: cell-based
T3 construct: expressed in transfected cells
Experimental: as §1, §2, §3

[4] = biological target: T4, KV7.2/7.3 (Homo sapiens, UniProt O43525+O43526); experiment: Manual patch clamp, KV7 currents; assay type: cell-based
T4 construct: expressed in transfected cells
Experimental: as §1, §2, §3

[5] = test system: electroshock seizures; experiment: Maximal electroshock seizure (MES) model; assay type: in vivo, Kunming mice; conditions: 15 mg/kg i.p.
[6] = biological target: KV7.3 (Homo sapiens, UniProt O43525); experiment: Manual patch clamp, KV7 currents; assay type: cell-based
Experimental: as §1, §2

For `CCOC(=O)Nc1ccc(NCc2ccc(F)cc2)cc1N` [RTG, retigabine], the “activation curve V1/2” value ([1]; 10.00 μM) was -56.77 ± 1.07 mV, the “Activation τ (10 mV)” value ([1]; 10 μM, Mean ± SE) was 170.33 ± 16.42 ms and the “Deactivation τ (-120 mV)” value ([1]; 10 μM, Mean ± SE) was 96.4 ± 14.98 ms. For the same compound, the “activation curve V1/2” value ([2]; 10.00 μM) was -32.23 ± 1.89 mV, the “Activation τ (10 mV)” value ([2]; 10 μM, Mean ± SE) was 259.60 ± 69.06 ms and the “Deactivation τ (-120 mV)” value ([2]; 10 μM, Mean ± SE) was 102.04 ± 18.32 ms. For the same compound, the “activation curve V1/2” value ([3]; 10.00 μM) was -40.62 ± 2.00 mV, the “Activation τ (10 mV)” value ([3]; 10 μM, Mean ± SE) was 242.74 ± 34.66 ms and the “Deactivation τ (-120 mV)” value ([3]; 10 μM, Mean ± SE) was 99.62 ± 18.87 ms. The “activation curve V1/2” value ([4]; 10.00 μM) was -37.76 ± 2.34 mV, the “Activation τ (10 mV)” value ([4]; 10 μM, Mean ± SE) was 205.66 ± 37.03 ms and the “Deactivation τ (-120 mV)” value ([4]; 10 μM, Mean ± SE) was 154.46 ± 45.81 ms. For the same compound, the electroshock protection rate [5] was 90%, the “activation curve V1/2” value ([6]; 10.00 μM) was -55.64 ± 1.31 mV and the “Activation τ (10 mV)” value ([6]; 10 μM, Mean ± SE) was 246.33 ± 21.28 ms. The “Deactivation τ (-120 mV)” value ([6]; 10 μM, Mean ± SE) was 153.33 ± 48.97 ms.

From paper PMC11931445, “A Novel Compound QO‐83 Alleviates Acute and Chronic Epileptic Seizures in Rodents by Modulating KV7 Channel Activity” (CNS Neuroscience & Therapeutics, 2025)
